Test results as given in patent US11612165B2, “Pesticide composition for controlling Spodoptera frugiperda” (priority 2020, dated 2023).
Like-named read-outs stand apart in the source and are kept apart here.

System: Spodoptera frugiperda
Assay: Indoor toxicity test, immersion method, larvae mortality after 24 h
Assay type: in vivo
Details: single or mixed in different ratios, 3-day-old larvae, 25° C., read-out: LC50 (95% confidence limit)
From the text: Pesticide for test: TC of tea saponin; TC of chlorantraniliprole; TC of tolfenpyrad;
Pest for test: Spodoptera frugiperda (2-3-day-old);
Test method: immersion method: calculating the dosage of the TC according to the active ingredients, preparing the TC into a mother solution, adding clear water to dilute the mother solution to 5-7 gradient concentrations, taking clear water treatment as a control, and setting 3 repetitions for each treatment; selecting 20 larvae with basically the same growth state, putting the larvae into an experiment barrel containing pesticide liquid, covering a gauze (to prevent escape), placing in a 25° C. incubator, investing the death situations after 24 h, recording the number of the dead larvae, and processing data by DPS statistical software.

| SMILES | LC50 (chlorantraniliprole (A) and tea saponin (B)) [µg/mL] | LC50 (tolfenpyrad (A) and tea saponin (B)) [µg/mL] |
| --- | --- | --- |
| CNC(=O)c1cc(Cl)cc(C)c1NC(=O)c1cc(Br)nn1-c1ncccc1Cl [Chlorantraniliprole (A), Chlorantraniliprole] | 0.283 | – |
| CCc1nn(C)c(C(=O)NCc2ccc(Oc3ccc(C)cc3)cc2)c1Cl [Tolfenpyrad (A), Tolfenpyrad] | – | 0.563 |
